Data from US20240209028A1, “CNP COMPOUNDS” (priority 2022, published 2024).
Starred links: 1 amine or outer side, 2 acyl side, 3 side chain; linkers in the order of their positions; H or OH if unused. Positions of bridges follow the written chain, without caps; N, C: chain ends. Residues, ends and D or L forms follow the SMILES beside them. *: point of attachment. C18 diacid = O=C(O)CCCCCCCCCCCCCCCCC(=O)*; γGlu = O=C(O)[C@H](CCC(=O)[*:2])N[*:1]; AEEA = NCCOCCOCC(=O)O

Each compound was assayed against T1, human natriuretic peptide receptor 2 (hNPR2) (Homo sapiens, UniProt P20594) (assay: In vitro hNPR2 activity assay (cGMP GloSensor reporter, HEK293)). Conditions: 0% HSA; HEK293-hNPR2/GloSensor cells.
T1 construct: expressed in transfected cells; host or cells: HEK293 (ATCC CRL-1573), clone 35, co-transfected with pGloSensor-42F
T1 sequence (P20594 23-1047): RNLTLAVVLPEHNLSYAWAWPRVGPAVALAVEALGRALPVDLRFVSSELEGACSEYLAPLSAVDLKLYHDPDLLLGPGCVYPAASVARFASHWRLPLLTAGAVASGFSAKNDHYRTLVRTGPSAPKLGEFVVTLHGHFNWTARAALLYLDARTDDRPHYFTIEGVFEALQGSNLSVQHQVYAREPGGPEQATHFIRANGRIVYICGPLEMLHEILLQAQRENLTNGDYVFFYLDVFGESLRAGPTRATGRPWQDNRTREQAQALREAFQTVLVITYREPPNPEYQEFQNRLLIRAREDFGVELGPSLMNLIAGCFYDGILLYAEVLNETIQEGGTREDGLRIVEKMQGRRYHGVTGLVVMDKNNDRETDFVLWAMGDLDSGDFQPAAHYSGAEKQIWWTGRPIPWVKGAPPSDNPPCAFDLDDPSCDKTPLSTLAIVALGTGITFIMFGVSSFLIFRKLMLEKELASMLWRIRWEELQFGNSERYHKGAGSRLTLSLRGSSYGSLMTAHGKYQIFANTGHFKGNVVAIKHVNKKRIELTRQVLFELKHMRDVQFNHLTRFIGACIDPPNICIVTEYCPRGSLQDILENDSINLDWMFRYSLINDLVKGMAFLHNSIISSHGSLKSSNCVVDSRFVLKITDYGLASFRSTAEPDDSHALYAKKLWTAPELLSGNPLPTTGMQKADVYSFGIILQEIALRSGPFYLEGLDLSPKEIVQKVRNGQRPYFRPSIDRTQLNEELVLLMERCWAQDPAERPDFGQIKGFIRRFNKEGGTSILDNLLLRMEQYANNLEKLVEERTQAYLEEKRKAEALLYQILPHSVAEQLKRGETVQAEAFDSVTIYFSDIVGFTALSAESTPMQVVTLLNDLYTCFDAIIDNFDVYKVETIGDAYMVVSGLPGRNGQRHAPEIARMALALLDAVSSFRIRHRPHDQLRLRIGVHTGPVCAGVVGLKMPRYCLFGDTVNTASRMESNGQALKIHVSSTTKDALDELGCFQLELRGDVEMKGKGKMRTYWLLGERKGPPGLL
Assay type: cell-based
How it was run: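 Potency is the EC50 from a four-parameter logistic fit, also expressed relative to the in-plate CNP22 control (×100), with at least two replicates. Compounds (ten concentrations, […], HSA-free diluent with 1% OVA, 0.01% Tween20) were incubated 30 min at 37 °C on HEK293 cells co-expressing hNPR2 and a GloSensor cGMP luciferase. Luminescence detected with Bright-Glo.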

| EC50 [nM] | SMILES |
| --- | --- |
| 0.56 | CC[C@H](C)[C@@H]1NC(=O)[C@H](CCCNC(=N)N)NC(=O)[C@H](CC(=O)O)NC(=O)[C@H](CC(C)C)NC(=O)[C@H](CCCCN)NC(=O)[C@H](CC(C)C)NC(=O)CNC(=O)[C@H](Cc2ccccc2)NC(=O)[C@@H](NC(=O)CNC(=O)[C@H](CCCCN)NC(=O)[C@H](CO)NC(=O)[C@H](CC(C)C)NC(=O)CNC(=O)[C@H](CCCCN)NC(=O)[C@H](CCCCN)NC(=O)[C@H](CCC(N)=O)NC(=O)[C@H](C)NC(=O)CNC(=O)[C@H](CCCCN)NC(=O)[C@H](Cc2ccc(O)cc2)NC(=O)[C@H](CCCCN)NC(=O)[C@H](CCCNC(=N)N)NC(=O)[C@H](C)NC(=O)[C@H](CCC(N)=O)NC(=O)[C@@H]2CCCN2C(=O)[C@H](Cc2c[nH]cn2)NC(=O)[C@H](CCC(=O)O)NC(=O)[C@H](CCC(N)=O)NC(=O)COCCOCCNC(=O)COCCOCCNC(=O)CC[C@H](NC(=O)CC[C@H](NC(=O)CC[C@H](NC(=O)CC[C@H](NC(=O)CC[C@H](NC(=O)CC[C@H](NC(=O)CC[C@H](NC(=O)CC[C@H](NC(=O)CCCCCCCCCCCCCCCCC(=O)O)C(=O)O)C(=O)O)C(=O)O)C(=O)O)C(=O)O)C(=O)O)C(=O)O)C(=O)O)CSSC[C@@H](C(=O)O)NC(=O)CNC(=O)[C@H](CC(C)C)NC(=O)CNC(=O)[C@H](CO)NC(=O)[C@H](CC(C)C)NC(=O)[C@H](CO)NC(=O)CNC1=O [compound 1401] |

Same assay, conditions: potency relative to CNP22 (0065)

| SMILES | hNPR2 0% HSA. [EC50% rel CNP] [%] |
| --- | --- |
| CC[C@H](C)[C@@H]1NC(=O)[C@H](CCCNC(=N)N)NC(=O)[C@H](CC(=O)O)NC(=O)[C@H](CC(C)C)NC(=O)[C@@H]2CCCN2C(=O)[C@H](CC(C)C)NC(=O)CNC(=O)[C@H](Cc2ccccc2)NC(=O)[C@@H](NC(=O)CNC(=O)[C@H](CCC(N)=O)NC(=O)[C@H](CO)NC(=O)CNC(=O)CNC(=O)[C@H](CCCCN)NC(=O)[C@H](CCCCN)NC(=O)[C@H](CCC(N)=O)NC(=O)[C@H](C)NC(=O)CNC(=O)[C@H](CCCCN)NC(=O)[C@H](Cc2ccc(O)cc2)NC(=O)[C@H](CCCCN)NC(=O)[C@H](Cc2c[nH]cn2)NC(=O)[C@H](C)NC(=O)[C@H](CCC(N)=O)NC(=O)[C@@H]2CCCN2C(=O)[C@H](Cc2c[nH]cn2)NC(=O)[C@H](CCC(=O)O)NC(=O)[C@H](CCC(N)=O)NC(=O)COCCOCCNC(=O)COCCOCCNC(=O)CC[C@H](NC(=O)CC[C@H](NC(=O)CC[C@H](NC(=O)CC[C@H](NC(=O)CCCCCCCCCCCCCCCCC(=O)O)C(=O)O)C(=O)O)C(=O)O)C(=O)O)CSSC[C@@H](C(=O)O)NC(=O)CNC(=O)[C@H](CC(C)C)NC(=O)CNC(=O)[C@H](CO)NC(=O)[C@H](CC(C)C)NC(=O)[C@H](CO)NC(=O)CNC1=O [compound 1400] ({C18 diacid-γGlu-γGlu-γGlu-γGlu-AEEA-AEEA}-QEHPQAHKYKGAQKKGGSQGCFGLPLDRIGSLSGLGC-OH; disulfide 21-37) | 85.3 |
| CC[C@H](C)[C@@H]1NC(=O)[C@H](CCCNC(=N)N)NC(=O)[C@H](CC(=O)O)NC(=O)[C@H](CC(C)C)NC(=O)[C@H](CCCCN)NC(=O)[C@H](CC(C)C)NC(=O)CNC(=O)[C@H](Cc2ccccc2)NC(=O)[C@@H](NC(=O)CNC(=O)[C@H](CCCCN)NC(=O)[C@H](CO)NC(=O)[C@H](CC(C)C)NC(=O)CNC(=O)[C@H](CCCCN)NC(=O)[C@H](CCCCN)NC(=O)[C@H](CCC(N)=O)NC(=O)[C@H](C)NC(=O)CNC(=O)[C@H](CCCCN)NC(=O)[C@H](Cc2ccc(O)cc2)NC(=O)[C@H](CCCCN)NC(=O)[C@H](CCCNC(=N)N)NC(=O)[C@H](C)NC(=O)[C@H](CCC(N)=O)NC(=O)[C@@H]2CCCN2C(=O)[C@H](Cc2c[nH]cn2)NC(=O)[C@H](CCC(=O)O)NC(=O)[C@H](CCC(N)=O)NC(=O)COCCOCCNC(=O)COCCOCCNC(=O)CC[C@H](NC(=O)CC[C@H](NC(=O)CC[C@H](NC(=O)CC[C@H](NC(=O)CC[C@H](NC(=O)CC[C@H](NC(=O)CC[C@H](NC(=O)CC[C@H](NC(=O)CCCCCCCCCCCCCCCCC(=O)O)C(=O)O)C(=O)O)C(=O)O)C(=O)O)C(=O)O)C(=O)O)C(=O)O)C(=O)O)CSSC[C@@H](C(=O)O)NC(=O)CNC(=O)[C@H](CC(C)C)NC(=O)CNC(=O)[C@H](CO)NC(=O)[C@H](CC(C)C)NC(=O)[C@H](CO)NC(=O)CNC1=O [compound 1401] | 19.7 |
| CC[C@H](C)[C@@H]1NC(=O)[C@H](CCCNC(=N)N)NC(=O)[C@H](CC(=O)O)NC(=O)[C@H](CC(C)C)NC(=O)[C@@H]2CCCN2C(=O)[C@H](CC(C)C)NC(=O)CNC(=O)[C@H](Cc2ccccc2)NC(=O)[C@@H](NC(=O)CNC(=O)[C@H](CCC(N)=O)NC(=O)[C@H](CO)NC(=O)CNC(=O)CNC(=O)[C@H](CCCCN)NC(=O)[C@H](CCCCN)NC(=O)[C@H](CCC(N)=O)NC(=O)[C@H](C)NC(=O)CNC(=O)[C@H](CCCCN)NC(=O)[C@H](Cc2ccc(O)cc2)NC(=O)[C@H](CCCCN)NC(=O)[C@H](CCCNC(=N)N)NC(=O)[C@H](C)NC(=O)[C@H](CCC(N)=O)NC(=O)[C@@H]2CCCN2C(=O)[C@H](Cc2c[nH]cn2)NC(=O)[C@H](CCC(=O)O)NC(=O)[C@H](CCC(N)=O)NC(=O)COCCOCCNC(=O)COCCOCCNC(=O)CC[C@H](NC(=O)CC[C@H](NC(=O)CC[C@H](NC(=O)CC[C@H](NC(=O)CC[C@H](NC(=O)CC[C@H](NC(=O)CCCCCCCCCCCCCCCCC(=O)O)C(=O)O)C(=O)O)C(=O)O)C(=O)O)C(=O)O)C(=O)O)CSSC[C@@H](C(=O)O)NC(=O)CNC(=O)[C@H](CC(C)C)NC(=O)CNC(=O)[C@H](CO)NC(=O)[C@H](CC(C)C)NC(=O)[C@H](CO)NC(=O)CNC1=O [compound 1403] ({C18 diacid-γGlu-γGlu-γGlu-γGlu-γGlu-γGlu-AEEA-AEEA}-QEHPQARKYKGAQKKGGSQGCFGLPLDRIGSLSGLGC-OH; disulfide 21-37) | 87.1 |
| CC[C@H](C)[C@@H]1NC(=O)[C@H](CCCNC(=N)N)NC(=O)[C@H](CC(=O)O)NC(=O)[C@H](CC(C)C)NC(=O)[C@@H]2CCCN2C(=O)[C@H](CC(C)C)NC(=O)CNC(=O)[C@H](Cc2ccccc2)NC(=O)[C@@H](NC(=O)CNC(=O)[C@H](CCCCN)NC(=O)[C@H](CO)NC(=O)[C@@H](NC(=O)CNC(=O)[C@@H](NC(=O)[C@H](CCCCN)NC(=O)[C@H](CCC(N)=O)NC(=O)[C@H](C)NC(=O)CNC(=O)[C@H](Cc2c[nH]cn2)NC(=O)[C@H](Cc2ccc(O)cc2)NC(=O)[C@H](CCCCN)NC(=O)[C@H](CCCNC(=N)N)NC(=O)[C@H](C)NC(=O)COCCOCCNC(=O)COCCOCCNC(=O)CC[C@H](NC(=O)CC[C@H](NC(=O)CC[C@H](NC(=O)CCCCCCCCCCCCCCCCC(=O)O)C(=O)O)C(=O)O)C(=O)O)[C@@H](C)O)C(C)C)CSSC[C@@H](C(=O)O)NC(=O)CNC(=O)[C@H](CC(C)C)NC(=O)CNC(=O)[C@H](CO)NC(=O)[C@H](CC(C)C)NC(=O)[C@H](CO)NC(=O)CNC1=O [compound 1423] ({C18 diacid-γGlu-γGlu-γGlu-AEEA-AEEA}-ARKYHGAQKTGVSKGCFGLPLDRIGSLSGLGC-OH; disulfide 16-32) | 37.7 |
| CC[C@H](C)[C@@H]1NC(=O)[C@H](CCCNC(=N)N)NC(=O)[C@H](CC(=O)O)NC(=O)[C@H](CC(C)C)NC(=O)[C@@H]2CCCN2C(=O)[C@H](CC(C)C)NC(=O)CNC(=O)[C@H](Cc2ccccc2)NC(=O)[C@@H](NC(=O)CNC(=O)[C@H](CCCCN)NC(=O)[C@H](CO)NC(=O)[C@@H](NC(=O)CNC(=O)[C@@H](NC(=O)[C@H](CCCCN)NC(=O)[C@H](CCC(N)=O)NC(=O)[C@H](C)NC(=O)CNC(=O)[C@H](CCCCN)NC(=O)[C@H](Cc2ccc(O)cc2)NC(=O)[C@H](CCCCN)NC(=O)[C@H](CCCNC(=N)N)NC(=O)[C@H](C)NC(=O)COCCOCCNC(=O)COCCOCCNC(=O)CC[C@H](NC(=O)CC[C@H](NC(=O)CC[C@H](NC(=O)CC[C@H](NC(=O)CCCCCCCCCCCCCCCCC(=O)O)C(=O)O)C(=O)O)C(=O)O)C(=O)O)[C@@H](C)O)C(C)C)CSSC[C@@H](C(=O)O)NC(=O)CNC(=O)[C@H](CC(C)C)NC(=O)CNC(=O)[C@H](CO)NC(=O)[C@H](CC(C)C)NC(=O)[C@H](CO)NC(=O)CNC1=O [compound 1424] ({C18 diacid-γGlu-γGlu-γGlu-γGlu-AEEA-AEEA}-ARKYKGAQKTGVSKGCFGLPLDRIGSLSGLGC-OH; disulfide 16-32) | 36.2 |
| CC[C@H](C)[C@@H]1NC(=O)[C@H](CCCNC(=N)N)NC(=O)[C@H](CC(=O)O)NC(=O)[C@H](CC(C)C)NC(=O)[C@@H]2CCCN2C(=O)[C@H](CC(C)C)NC(=O)CNC(=O)[C@H](Cc2ccccc2)NC(=O)[C@@H](NC(=O)CNC(=O)[C@H](CCCCN)NC(=O)[C@H](CO)NC(=O)[C@@H](NC(=O)CNC(=O)[C@@H](NC(=O)[C@H](CCCCN)NC(=O)[C@H](CCC(N)=O)NC(=O)[C@H](C)NC(=O)CNC(=O)[C@H](Cc2c[nH]cn2)NC(=O)[C@H](Cc2ccc(O)cc2)NC(=O)COCCOCCNC(=O)COCCOCCNC(=O)COCCOCCNC(=O)COCCOCCNC(=O)CC[C@H](NC(=O)CC[C@H](NC(=O)CCCCCCCCCCCCCCCCC(=O)O)C(=O)O)C(=O)O)[C@@H](C)O)C(C)C)CSSC[C@@H](C(=O)O)NC(=O)CNC(=O)[C@H](CC(C)C)NC(=O)CNC(=O)[C@H](CO)NC(=O)[C@H](CC(C)C)NC(=O)[C@H](CO)NC(=O)CNC1=O [compound 1425] ({C18 diacid-γGlu-γGlu-AEEA-AEEA-AEEA-AEEA}-YHGAQKTGVSKGCFGLPLDRIGSLSGLGC-OH; disulfide 13-29) | 26.4 |
